The values below come from paper PMC10787790, “Isatin-tethered halogen-containing acylhydrazone derivatives as monoamine oxidase inhibitor with neuroprotective effect” (Scientific Reports, 2024).

The structures appear in SMILES notation.

In the first data set the target is T1, MAO-A (Homo sapiens, UniProt P21397).
T1 sequence (P21397 1-527): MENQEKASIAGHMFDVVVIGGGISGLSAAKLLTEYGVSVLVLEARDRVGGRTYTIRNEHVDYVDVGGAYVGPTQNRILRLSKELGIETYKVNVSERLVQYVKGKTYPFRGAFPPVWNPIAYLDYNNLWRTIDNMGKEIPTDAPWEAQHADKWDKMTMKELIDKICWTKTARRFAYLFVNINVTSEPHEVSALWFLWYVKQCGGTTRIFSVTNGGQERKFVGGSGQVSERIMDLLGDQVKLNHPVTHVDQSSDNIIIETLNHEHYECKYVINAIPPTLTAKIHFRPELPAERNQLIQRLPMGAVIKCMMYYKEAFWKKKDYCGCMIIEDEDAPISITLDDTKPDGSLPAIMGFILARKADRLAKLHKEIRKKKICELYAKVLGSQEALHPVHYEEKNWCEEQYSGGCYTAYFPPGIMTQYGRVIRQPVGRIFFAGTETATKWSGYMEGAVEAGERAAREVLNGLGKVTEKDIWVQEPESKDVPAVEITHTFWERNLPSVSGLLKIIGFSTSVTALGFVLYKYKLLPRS
Nature of the data set: MAO-A inhibition assay (continuous, kynuramine).
Details: not given
By IC50 is commonly meant the concentration at which inhibition is half-maximal. Read a high IC50 as weaker potency. In the case of `O=C1Nc2ccc(F)cc2/C1=N/NC(=O)c1ccc(Cl)cc1` [IS10], the IC50 was 18.3 ± 0.729 µM.
In the case of `O=C1Nc2ccc(F)cc2/C1=N/NC(=O)c1ccc(Br)cc1` [IS11], the midpoint of inhibition, the IC50, lay at 13.7 ± 0.396 µM.
On the same count and under the same terms, the figure for `O=C1Nc2ccc(F)cc2/C1=N/NC(=O)c1ccc(F)cc1` [IS12] is 4.29 ± 0.552 µM; for `O=C1Nc2ccc(Cl)cc2/C1=N/NC(=O)c1ccc(Cl)cc1` [IS14] it is 11.3 ± 0.414 µM.
The compound `O=C1Nc2ccc(Cl)cc2/C1=N/NC(=O)c1ccc(F)cc1` [IS16] registered an IC50 of 8.45 ± 0.395 µM. This IC50 and that of the compound before are within 1.5-fold of each other.

The same data set, now with this note: read-out: Residual activity at 10 µM (%) MAO-A.
In the case of `O=C1Nc2ccc(F)cc2/C1=N/NC(=O)c1ccc(Cl)cc1` [IS10], the remaining activity at 10 µM was determined as 54.1 ± 0.78%.
Still for that read-out and setting: the figure for `O=C1Nc2ccc(F)cc2/C1=N/NC(=O)c1ccc(Br)cc1` [IS11] is 43.56 ± 0.42%; for `O=C1Nc2ccc(F)cc2/C1=N/NC(=O)c1ccc(F)cc1` [IS12] it is 36.6 ± 1.6%.
For the compound `O=C1Nc2ccc(Cl)cc2/C1=N/NC(=O)c1ccc(Cl)cc1` [IS14], the remaining activity at 10 µM turned out to be 53.1 ± 0.91%.
The same measure, in the same setting: next, `O=C1Nc2ccc(Cl)cc2/C1=N/NC(=O)c1ccc(F)cc1` [IS16]: 43.7 ± 1.65%.

Tested on in another data set: not listed separately
Nature of the data set: Parallel artificial membrane permeability assay (PAMPA), BBB. The format is in vitro ADME.
Details: not given
The method, then: The blood–brain barrier (BBB) permeation abilities of the four lead molecules were analyzed using the PAMPA method[44],[45]. The detailed procedure is explained in the Supplementary Data.
Using a microtiter plate with 96 wells and a Millipore filter plate with 96 wells (ipvh, 125 μm thick filter, 0.45 μm pore), which was then saturated with 0.1 mL of n-dodecane, a "sandwich" structure was created in PAMPA. Stock solutions of drug samples in DMSO were created at a 10 mM concentration. The stock solution was diluted in buffer at pH 7.4 before being added to a 96-well filter plate in order to achieve a final sample concentration (0.01, 0.1, and 1 mM) and keep the DMSO concentration at 1% (v/v). The final dilutions were divided into 270 μL for the donor wells and 200 μL of pH 7.4 buffer for the acceptor well. The donor plate was placed on the top of the acceptor filter plate to form a sandwich (comprising of a synthetic lipid membrane in the center, an aqueous receiver on […], and an aqueous donor carrying an analyte on the bottom.). The test substance diffuses from the donor well across the lipid membrane and into the acceptor well. The sandwich is said to have been intact when the penetration occurred. The drug concentration in the reference, donor, and receiver wells was measured using UV spectroscopy. The rate of penetration is calculated using the following expression.
Log Pe = -ln [1-CA /Equilibrium]/A× (1/VD + 1/VA) × t
Turning to `O=C1Nc2ccccc2/C1=N/NC(=O)c1ccc(Cl)cc1` [IS6], the “CNS/BBB permeability in words” value is “high permeability and CNS bioavailability”; the “Prediction (CNS permeation class)” value is on record as “CNS+ (Pe (10^−6 cm/s) > 4.00: CNS + (high permeation))”.
With `O=C1Nc2ccc(Cl)cc2/C1=N/NC(=O)c1ccccc1` [IS13], the “CNS/BBB permeability in words” value was “high permeability and CNS bioavailability”; the “Prediction (CNS permeation class)” value was “CNS+ (Pe (10^−6 cm/s) > 4.00: CNS + (high permeation))”.
Take `C#CCN(C)[C@H](C)Cc1ccccc1` [Selegiline, reference compound]: the “Prediction (CNS permeation class)” value is recorded as “CNS+ (Pe (10^−6 cm/s) > 4.00: CNS + (high permeation))”.

The same data set, now with this note: pH 7.4.
`O=C1Nc2ccccc2/C1=N/NC(=O)c1ccc(Cl)cc1` [IS6]: the “Experimental Pe” value was greater than 4 ×10⁻⁶ cm/s.
On the same count and under the same terms, next, `O=C1Nc2ccc(Cl)cc2/C1=N/NC(=O)c1ccccc1` [IS13]: greater than 4 ×10⁻⁶ cm/s.

Still in this data set, the particulars now being: pH 7.4, read-out: Experimental Pe.
Take `O=C1Nc2ccccc2/C1=N/NC(=O)c1ccc(Cl)cc1` [IS6]: the Papp stood at 4.86 ± 0.26 ×10⁻⁶ cm/s.
The same measure, in the same setting: next, `O=C1Nc2ccc(Cl)cc2/C1=N/NC(=O)c1ccccc1` [IS13]: 4.66 ± 0.18 ×10⁻⁶ cm/s.

The target in a further data set is T2, MAO-B (Homo sapiens, UniProt P27338).
T2 sequence (P27338 1-520): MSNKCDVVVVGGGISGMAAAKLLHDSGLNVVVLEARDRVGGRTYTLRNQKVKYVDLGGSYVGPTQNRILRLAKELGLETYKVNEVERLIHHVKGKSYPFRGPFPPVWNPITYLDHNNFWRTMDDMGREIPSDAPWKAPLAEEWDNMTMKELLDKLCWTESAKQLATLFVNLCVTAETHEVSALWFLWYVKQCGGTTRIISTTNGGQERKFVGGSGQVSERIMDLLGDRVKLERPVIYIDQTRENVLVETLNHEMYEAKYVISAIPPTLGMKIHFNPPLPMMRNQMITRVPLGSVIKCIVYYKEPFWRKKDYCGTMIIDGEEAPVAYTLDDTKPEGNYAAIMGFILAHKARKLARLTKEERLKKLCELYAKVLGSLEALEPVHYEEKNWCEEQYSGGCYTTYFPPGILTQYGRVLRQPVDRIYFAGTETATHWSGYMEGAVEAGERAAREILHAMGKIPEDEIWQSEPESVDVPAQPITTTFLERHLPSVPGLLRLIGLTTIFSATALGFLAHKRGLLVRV
Nature of the data set: MAO-B inhibition assay (continuous, benzylamine).
Details: not given
With `O=C1Nc2ccc(F)cc2/C1=N/NC(=O)c1ccc(Cl)cc1` [IS10], the IC50 is 3.99 ± 0.472 µM.
Same read-out and setting: the figure for `O=C1Nc2ccc(F)cc2/C1=N/NC(=O)c1ccc(Br)cc1` [IS11] is 10.6 ± 0.256 µM; for `O=C1Nc2ccc(F)cc2/C1=N/NC(=O)c1ccc(F)cc1` [IS12] it is 7.1 ± 0.956 µM.
Same read-out and setting: the figure for `O=C1Nc2ccc(Cl)cc2/C1=N/NC(=O)c1ccc(Cl)cc1` [IS14] is 0.234 ± 0.008 µM.
On the same count and under the same terms, next, `O=C1Nc2ccc(Cl)cc2/C1=N/NC(=O)c1ccc(F)cc1` [IS16]: 3.85 ± 0.392 µM.

Staying with this data set, now noted: (IC50 of MAO-A)/(IC50 of MAO-B); MAO-B compared to MAO-A.
Turning to `O=C1Nc2ccc(F)cc2/C1=N/NC(=O)c1ccc(Cl)cc1` [IS10], the “SI (selectivity index)” value is on record as 4.58.
Same read-out and setting: the figure for `O=C1Nc2ccc(F)cc2/C1=N/NC(=O)c1ccc(Br)cc1` [IS11] is 1.30.
Still for that read-out and setting: the figure for `O=C1Nc2ccc(F)cc2/C1=N/NC(=O)c1ccc(F)cc1` [IS12] is 0.60.
Same read-out and setting: next, `O=C1Nc2ccc(Cl)cc2/C1=N/NC(=O)c1ccc(Cl)cc1` [IS14]: 48.15; `O=C1Nc2ccc(Cl)cc2/C1=N/NC(=O)c1ccc(F)cc1` [IS16]: 2.20.

The data set is the same for the next values; noted with them: read-out: Residual activity at 10 µM (%) MAO-B.
In the case of `O=C1Nc2ccc(F)cc2/C1=N/NC(=O)c1ccc(Cl)cc1` [IS10], the remaining activity at 10 µM came to 42.6 ± 0.82%.
On to `O=C1Nc2ccc(F)cc2/C1=N/NC(=O)c1ccc(Br)cc1` [IS11], for which the remaining activity at 10 µM turned out to be 53.2 ± 2.6%.
The same measure, in the same setting: next, `O=C1Nc2ccc(F)cc2/C1=N/NC(=O)c1ccc(F)cc1` [IS12]: 44.3 ± 4.48%; `O=C1Nc2ccc(Cl)cc2/C1=N/NC(=O)c1ccc(Cl)cc1` [IS14]: 23 ± 2.48%.
Turning to `O=C1Nc2ccc(Cl)cc2/C1=N/NC(=O)c1ccc(F)cc1` [IS16], the remaining activity at 10 µM worked out at 26.1 ± 4.39%.
